Earlier results on three molecules are cited in patent publication US20080171795A1, “Novel Inter and Intra Multilamellar Vesicular Composition” (LIFE-CARE INNOVATIONS PVT. LTD., priority 2005, published 2008).

The structures appear in SMILES notation. Like-named read-outs stand apart in the source and are kept apart here.

The test system of one data set is psoriasis. The conditions noted are these: compared with dithranol.
For data set [1] the following is noted: topical, skin with impaired stratum corneum barrier.

Turning to `CCCC(=O)C1c2cccc(O)c2C(=O)c2c(O)cccc21` [butantrone, 10-butyryldithranol], in the data set with psoriasis, the Efficacy result was “compromised”; the Irritancy and staining entry was “reduced irritancy and staining”.
As to `CC(=O)Oc1cccc2cc3cccc(OC(C)=O)c3c(OC(C)=O)c12` [triacetyldithranol], in the data set with psoriasis, the Efficacy entry is given as “compromised”; the Irritancy and staining result is “reduced irritancy and staining”.
As to `O=C1c2c(O)cccc2Cc2cccc(O)c21` [Dithranol, 1,8-dihydroxyanthrone], the Solubility entry is given as “alcohol, ether, glacial acetic acid, sparingly” (in acetone); “slightly soluble” (in alcohol, ether, glacial acetic acid); “chloroform. dissolves in dilute solution of alkali” (in dilute solution of alkali hydroxides); “soluble in acetone, soluble in methylene chloride,” (in methylene chloride, chloroform); “Practically insoluble” (in water); “insoluble in water” (in water, listed as dithranol). In data set [1], the “Time to penetrate into the skin” value is 30 min.
